US9284345B2 (priority 2007, dated 2016)
Values joined by “and” are separate entries in the source; they are usually repeats but may differ in a detail not shown here. Equal values may be shown once.

How the values were obtained:
[1] = system: androgen receptor; test: Antiandrogen / SARM / androgen profile observed on structural change; conditions: structure-activity observation in estratriene derivatives
Description: Preferred positions on the steroid to this change in activities are 3, 4, 11β, 16 and 17α. […] Moreover, when we changed the 4-fluoro by a 4-chloro on EM-6583, we obtained a pure androgen (EM-5697). Similarly, when we increased the size of the chain at 17α-position on (1,4-phenylene as a spacer group), EM-8419 became a SARM. Again, when we changed the 4-fluoro by a 4-chloro on EM-8419, we obtained a pure androgen (EM-5313).
We also believed that a larger size increase could reverse the observed tendency (androgen to SARM or antiandrogen). Thus, it is not obvious to make good predictions of the biological activity of this compound family but some trends are observable.

[2] = system: Shionogi mouse mammary carcinoma cells; test: cells; format: cell-based; conditions: for % of inh of DHT at 10^−7 M (Basal = 100%): 0.0003 µM; for Ki: read-out: Shionogi cells Antiandrogenic activity Ki
[3] = system: Immature Rat CX + DHT; test: animal or person; format: in vivo; conditions: rat, in vivo; for In Vivo Anti-A Rat CX + DHT % change vs DHT (CX CONT = −100%) Bulbo / In Vivo Anti-A Rat CX + DHT % change vs DHT (CX CONT = −100%) SV / In Vivo Anti-A Rat CX + DHT % change vs DHT (CX CONT = −100%) VP: po
[4] = target: T1, Human Androgen Receptor (Homo sapiens, UniProt P10275); format: binding
T1 construct: expressed in transfected cells; host or cells: HEK-293 cells stably transfected with the pCMVneo-hAR plasmid (G-418 selection); cytosol used
T1 sequence (P10275 1-920): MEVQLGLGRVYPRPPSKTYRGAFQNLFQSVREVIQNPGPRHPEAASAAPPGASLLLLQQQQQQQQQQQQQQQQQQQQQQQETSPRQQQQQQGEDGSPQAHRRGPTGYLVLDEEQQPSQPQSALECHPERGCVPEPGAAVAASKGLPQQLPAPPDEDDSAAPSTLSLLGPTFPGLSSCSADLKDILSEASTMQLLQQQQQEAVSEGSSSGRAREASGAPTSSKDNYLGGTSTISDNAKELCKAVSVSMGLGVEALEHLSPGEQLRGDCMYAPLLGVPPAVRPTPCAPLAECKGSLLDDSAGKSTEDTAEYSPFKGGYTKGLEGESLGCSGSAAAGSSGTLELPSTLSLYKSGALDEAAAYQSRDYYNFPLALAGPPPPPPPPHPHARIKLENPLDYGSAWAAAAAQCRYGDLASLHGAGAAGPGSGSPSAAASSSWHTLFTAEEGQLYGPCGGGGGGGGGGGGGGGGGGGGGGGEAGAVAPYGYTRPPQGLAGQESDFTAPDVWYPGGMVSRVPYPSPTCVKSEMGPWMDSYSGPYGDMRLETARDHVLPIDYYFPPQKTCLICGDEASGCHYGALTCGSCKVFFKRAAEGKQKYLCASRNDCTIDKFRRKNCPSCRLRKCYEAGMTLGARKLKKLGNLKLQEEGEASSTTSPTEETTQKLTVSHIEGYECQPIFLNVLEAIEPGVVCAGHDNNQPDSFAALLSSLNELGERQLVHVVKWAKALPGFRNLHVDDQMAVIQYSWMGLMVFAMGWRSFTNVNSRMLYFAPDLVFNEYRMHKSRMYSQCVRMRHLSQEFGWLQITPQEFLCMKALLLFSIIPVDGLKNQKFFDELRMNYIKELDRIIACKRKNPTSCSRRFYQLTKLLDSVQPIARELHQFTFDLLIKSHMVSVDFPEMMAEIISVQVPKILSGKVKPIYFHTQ

[5] = system: Intact Rat; test: In vivo activity in intact rat (organ and muscle weight)
[6] = system: Immature Rat CX; conditions: for In Vivo Agonist % Change vs CX (DHT = +100%) SV / In Vivo Agonist % Change vs CX (DHT = +100%) VP: po
[7] = target: T2, Rat Androgen Receptor (Rattus norvegicus, UniProt P15207); test: Androgen receptor binding assay (HAP, [3H]R1881), rat prostate cytosol
T2 construct: ventral prostates collected from 24 h-gonadectomized rats were homogenized in buffer A; from tissue; host or cells: rat ventral prostate cytosol (24 h-gonadectomized rats)
T2 sequence (P15207 1-902): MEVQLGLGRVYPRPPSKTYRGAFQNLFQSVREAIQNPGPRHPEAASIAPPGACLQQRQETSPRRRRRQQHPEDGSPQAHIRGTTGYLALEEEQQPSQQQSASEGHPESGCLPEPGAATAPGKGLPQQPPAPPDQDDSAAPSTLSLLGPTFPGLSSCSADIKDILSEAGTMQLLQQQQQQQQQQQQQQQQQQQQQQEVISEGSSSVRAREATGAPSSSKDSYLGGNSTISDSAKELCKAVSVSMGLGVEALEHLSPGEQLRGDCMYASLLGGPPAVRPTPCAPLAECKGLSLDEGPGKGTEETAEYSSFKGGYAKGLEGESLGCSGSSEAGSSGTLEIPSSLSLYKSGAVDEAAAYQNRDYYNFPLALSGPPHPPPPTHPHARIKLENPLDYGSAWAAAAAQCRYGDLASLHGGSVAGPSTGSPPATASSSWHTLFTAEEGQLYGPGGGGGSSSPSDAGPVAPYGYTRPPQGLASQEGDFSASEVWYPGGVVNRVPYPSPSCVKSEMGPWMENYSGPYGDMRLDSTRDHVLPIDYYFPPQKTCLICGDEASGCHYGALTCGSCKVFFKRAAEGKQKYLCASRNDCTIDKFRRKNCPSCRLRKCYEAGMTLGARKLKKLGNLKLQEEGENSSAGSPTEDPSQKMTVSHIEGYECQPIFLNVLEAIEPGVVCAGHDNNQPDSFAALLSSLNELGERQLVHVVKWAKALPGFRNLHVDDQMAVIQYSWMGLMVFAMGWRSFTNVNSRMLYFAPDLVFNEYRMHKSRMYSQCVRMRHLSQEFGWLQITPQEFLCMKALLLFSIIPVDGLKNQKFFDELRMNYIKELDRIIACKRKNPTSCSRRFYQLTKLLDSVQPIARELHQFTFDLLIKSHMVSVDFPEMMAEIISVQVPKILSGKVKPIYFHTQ
Protocol: On the morning of the binding assay, ventral prostates collected from 24 h-gonadectomized rats were homogenized in buffer A (1 g of tissue in 5 mL) and the homogenate was centrifuged as described above.
Androgen binding is measured using the hydroxylapatite (HAP) assay. In brief, the radioactive steroid [^3H]R1881 solubilized in ethanol is diluted with buffer B (10 mM Tris-HCl, 1.5 mM EDTA disodium salt, 10 mM α-monothioglycerol, pH 7.4). Aliquots of the cell or prostate cytosol preparation (0.1 ml) are then incubated with 5 nM [^3H]R1881 (0.1 ml, ˜100 000 cpm) in the presence or absence of the indicated concentrations of unlabeled compounds (0.1 ml, prepared in buffer B containing 30% ethanol) for 16-18 h at 0-4° C. Triamcinolone acetonide (TAC; 100 nM) is added to mask progesterone receptors. Unbound steroids are separated by incubation for 40 min at 0-4° C. with 0.3 ml HAP prepared in buffer P (50 mM Tris-HCl, 10 mM KH2PO4, pH 7.4). After incubation with HAP and 10 min of centrifugation at 1000×g, the pellet is washed 3 times with 1 ml of buffer P. Thereafter, the radioactivity is extracted from the pellet by incubation at room temperature for 60 min with 1 ml of ethanol. After centrifugation, the supernatant is decanted into a scintillation vial and the pellet is extracted again with ethanol. After the addition of scintillation liquid, the radioactivity is measured in a liquid scintillation counter.

| Structure (SMILES) | % of stim of basal at 10^−7M (% over basal) [2] | % of stim of basal at 10^−7 M (DHT = 100%) [2] | In Vivo Anti-A Rat CX + DHT % change vs DHT (CX CONT = −100%) SV [3] [%] | In Vivo Anti-A Rat CX + DHT % change vs DHT (CX CONT = −100%) VP [3] [%] | Human Androgen Receptor Binding RBA (%) R1881 = 100% [4] | In Vivo Intact Rat % change vs Intact CONT (Intact CONT = +100%; CX CONT = 0%) SZ ([5]; rat, in vivo) | In Vivo Agonist Rat CX % change vs CX (DHT CONT = +100%) Bulbo [6] | In Vivo Agonist Rat CX % change vs CX (DHT CONT = +100%) SV [6] | In Vivo Agonist Rat CX % change vs CX (DHT CONT = +100%) VP [6] | Shionogi cells Antiandrogenic activity Ki OH-Flu/Ki compound [2] | Ki [2] [nM] | Rat Androgen Receptor Binding RBA (%) R1881 = 100% [7] [%] | other results |
| --- | --- | --- | --- | --- | --- | --- | --- | --- | --- | --- | --- | --- | --- |
| C[C@]12CCC3c4ccc(C#N)c(Cl)c4CCC3C1CC[C@@]2(O)Cc1ccc(-c2ccc[n+]([O-])c2)cc1 (stereo partly shown) [EM-5313] | – | – | – | – | – | – | – | – | – | – | – | – | activity profile (antiandrogen, SARM or androgen) [1]: pure androgen |
| CCC1CC2(C)C(CCC2(O)Cc2cc[n+]([O-])cc2F)C2CCc3c(ccc(C#N)c3F)C12 (stereo not shown) [EM-9017] | +36% | +31% | −54 ± 2 | −42 ± 2 | 139% | +57 ± 6% | +102 ± 12% | +22 ± 2% | +24 ± 5% | – | – | – | % of inh of DHT at 10^−7 M (Basal = 100%) [2]: +64%; In Vivo Anti-A Rat CX + DHT % change vs DHT (CX CONT = −100%) Bulbo [3]: +3 ± 11%; In Vivo Intact Rat % change vs Intact CONT (Intact CONT = +100%; CX CONT = 0%) Bulbo ([5]; rat, in vivo): +154 ± 13%; In Vivo Intact Rat % change vs Intact CONT (Intact CONT = +100%; CX CONT = 0%) VP ([5]; rat, in vivo): +47 ± 5%; inhibition of intact rat prostate ([5]; rat, in vivo): 53±5%; inhibition of intact rat seminal vesicles ([5]; rat, in vivo): 43±6%; stimulation of the bulbocavernosus muscles in intact rat ([5]; rat, in vivo): 54±13% |
| CC1CC2(C)C(CCC2(O)Cc2cc[n+]([O-])cc2)C2CCc3c(ccc(C#N)c3Cl)C12 (stereo not shown) [EM-5697] | – | – | – | – | – | – | – | – | – | – | – | – | activity profile (antiandrogen, SARM or androgen) [1]: pure androgen |
| CC[C@H]1C[C@@]2(C)C(CC[C@@]2(O)Cc2ccncc2F)C2CCc3c(ccc(C#N)c3F)C21 (stereo partly shown) [EM-9016] | +45% | +39% | −39 ± 5 | −44 ± 3 | 2250% and 2250 ± 570% | +44 ± 6% | +66 ± 25% | +17 ± 1% | +13 ± 2% | – | – | – | inhibition at 0.0003 µM ([2]; Mus musculus, read-out: % of inh of DHT at 10^−7 M (Basal = 100%)): 46%; In Vivo Anti-A Rat CX + DHT % change vs DHT (CX CONT = −100%) Bulbo [3]: +10 ± 9%; In Vivo Intact Rat % change vs Intact CONT (Intact CONT = +100%; CX CONT = 0%) Bulbo ([5]; 0.1 mg/rat/os/ID, bulbocavernosus muscles weight): +108 ± 21%; In Vivo Intact Rat % change vs Intact CONT (Intact CONT = +100%; CX CONT = 0%) VP ([5]; 0.1 mg/rat/os/ID, prostate weight): +53 ± 6% |
| C[C@H]1C[C@@]2(C)C(CC[C@@]2(O)Cc2ccncc2)C2CCc3c(ccc(C#N)c3F)C21 (stereo partly shown) [EM-6582] | +145 ± 78% | +41 ± 22% | −60 ± 6 | −36 ± 1 | 331% | +49 ± 5% | +71 ± 15% | +18 ± 3% | +37 ± 3% | – | – | – | % of inh of DHT at 10^−7 M (Basal = 100%) [2]: +59 ± 22%; In Vivo Intact Rat % change vs Intact CONT (Intact CONT = +100%; CX CONT = 0%) Bulbo ([5]; rat, in vivo): +197 ± 29%; In Vivo Intact Rat % change vs Intact CONT (Intact CONT = +100%; CX CONT = 0%) VP ([5]; rat, in vivo): +72 ± 6% |
| Cc1c(C#N)ccc2c1CCC1C2CCC2(C)C1CCC2(O)Cc1cc[n+]([O-])cc1 (stereo not shown) [EM-5985] | – | – | – | – | 2.0 ± 0.3% | – | – | – | – | 12 and 12 ± 4 | 0.9 ± 0.2 | 0.6 | activity on the basal level of Shionogi cell proliferation [2]: none of these compounds has any activity; inhibition of DHT-stimulated seminal vesicle weight [3]: 84%; inhibition of DHT-stimulated ventral prostate weight [3]: 69%; potency on rat androgen-sensitive parameters relative to currently available antiandrogens [3]: approximately 5 times; affinity for the human compared to the rat androgen receptor [4]: approximately 3 fold; In Vivo Agonist % Change vs CX (DHT = +100%) SV [6]: [0] %; In Vivo Agonist % Change vs CX (DHT = +100%) VP [6]: [0] % |
| Cc1c[n+]([O-])ccc1CC1(O)CCC2C3CCc4c(ccc(C#N)c4F)C3CCC21C (stereo not shown) [EM-8505] | – | – | – | – | ~0.3% | – | – | – | – | 4.4 | 4.2 | ~0.3 | – |
| CC12CCC3c4ccc(C#N)c(F)c4CCC3C1CCC2(O)Cc1cc[n+]([O-])cc1F (stereo not shown) [EM-8454] | – | – | – | – | ~1% | – | – | – | – | 2.7 | 2.2 | ~0.3 | In Vivo Agonist % Change vs CX (DHT = +100%) SV [6]: 0%; In Vivo Agonist % Change vs CX (DHT = +100%) VP [6]: 0% |
